Drawing on PubChem BioAssay (NCI), this text covers GI50 and TGI for seven compounds.

Molecules are shown by their SMILES.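 All cell lines were grown in 96-well plates and treated with compound for 48 hours. GI50 is the concentration that inhibits growth by half. Definition used: TGI = concentration required for complete inhibition of growth.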 Bounds are passed on as bounds.

Common to all, as to assay: DTP human tumour cell line panel, 48 h
In experiment [1] the test system is MDA-MB-435.
For experiment [2], the system named is 786-0 renal.
Experiment [3] relates to A498 renal.
Experiment [4] concerns RPMI-8226 leukemia.
In experiment [5] the test system is A549 NSCLC.
The subject of experiment [6] is NCI-H460 lung.
For experiment [7], the system named is IGROV1 ovarian.
Experiment [8] has as its system OVCAR-4 ovarian.
The subject of experiment [9] is OVCAR-3 ovarian.
In experiment [10] the test system is SNB-19 CNS.

Regarding `COc1cc(Nc2ncc(-c3ccccc3)o2)cc(OC)c1`, the GI50 was greater than 25 µM in experiment [1]; greater than 25 µM in experiment [2]; 5.57 µM in [3]; greater than 25 µM in experiment [4]; greater than 25 µM in [5]; greater than 20.4 µM in experiment [6]. The GI50 in [7], in experiment [8], in [9] and in [10] was greater than 25 µM throughout. The TGI in experiment [1], in experiment [2], in experiment [3], in experiment [4], in experiment [5] and in experiment [6] was greater than 25 µM each time. Besides, the total growth inhibition concentration (TGI) in experiment [7], in [8], in [9] and in experiment [10] was greater than 25 µM in each case.

As to `O=C(Nc1ccccc1)Nc1ccc2cc3ccc(NC(=O)Nc4ccccc4)cc3nc2c1`, the GI50 in [1] was 1.68 µM; in experiment [2], 1.64 µM; in experiment [3], 2.74 µM; in [4], 5.42 µM; in experiment [5], 11.2 µM; in experiment [6], 3.95 µM. The GI50 is 1.66 µM in experiment [7], 1.12 µM in experiment [8], 1.1 µM in [9] and 1.58 µM in [10]. In addition, the concentration for total growth inhibition (TGI) is 3.15 µM in experiment [1]; 3.34 µM in experiment [2]; 8.87 µM in experiment [3]; greater than 100 µM in experiment [4]; greater than 100 µM in experiment [5]; greater than 100 µM in experiment [6]. Moreover, the concentration for total growth inhibition (TGI) in experiment [7] is 4.3 µM; in experiment [8], 2.42 µM; in experiment [9], 2.45 µM; in [10] it was 3.05 µM.

As for `COC(=O)c1ccc(CN2C(=O)C(Cl)=C(Nc3cccc(Cl)c3C)C2=O)cc1`, the GI50 in [1] was 7.89 µM; in [2], 15.6 µM; in [3] it was 2.54 µM; in experiment [4], 3.76 µM; in [5], 37.2 µM; in [6], 34.5 µM. In addition, the GI50 in [7] is 2.76 µM; in experiment [8] it was 26.5 µM; in experiment [9] it was 20.2 µM; in experiment [10], greater than 100 µM. The TGI in experiment [1] is 37.9 µM; in [2] it was 51.5 µM; in experiment [3], 15.2 µM; in [4] it was 48.2 µM; in experiment [5], greater than 100 µM; in experiment [6], greater than 100 µM. Besides, the TGI in [7] was 18.5 µM; in [8], greater than 100 µM; in experiment [9] it was 70.3 µM; in experiment [10] it was greater than 100 µM.

For the compound `NC(=O)c1cc([N+](=O)[O-])c(Cl)c([N+](=O)[O-])c1Cl`, the GI50 was 1.93 µM in [1]; 1.44 µM in experiment [2]; 1.9 µM in experiment [3]; 0.661 µM in experiment [4]; 1.88 µM in experiment [5]; 1.74 µM in experiment [6]. Moreover, the GI50 in [7] was 0.625 µM; in [8] it was 1.77 µM; in experiment [9], 1.14 µM; in [10], 2.29 µM. Also, the TGI stood at 3.73 µM in experiment [1]; 2.87 µM in experiment [2]; 4.58 µM in experiment [3]; 3.61 µM in experiment [4]; 3.8 µM in experiment [5]; 3.49 µM in experiment [6]. Besides, the TGI came out at 7.73 µM in experiment [7], 3.19 µM in experiment [8], 2.35 µM in experiment [9] and 5.93 µM in experiment [10].

As for `Cc1cccc2nc3ccccc3c(Nc3ccc(NS(C)(=O)=O)cc3)c12`, the GI50 in [1] was 13.5 µM; in experiment [2], 5.03 µM; in experiment [3] it was 3.81 µM; in experiment [4] it was 2.68 µM; in experiment [5] it was 1.88 µM; in experiment [6], 2.45 µM. Also, the GI50 in experiment [7] was 4.3 µM; in [8] it was 13 µM; in experiment [9] it was 14.1 µM; in experiment [10], 6.98 µM. Further, the TGI in experiment [1] is 34.2 µM; in experiment [2] it was 16.6 µM; in experiment [3] it was 19.4 µM; in experiment [4] it was 9.19 µM; in experiment [5], 12.4 µM; in experiment [6] it was 11.7 µM. Also, the TGI in [7] turned out to be 38.6 µM; in [8], 49.5 µM; in experiment [9], 37 µM; in experiment [10], 56.2 µM.

Turning to `COc1ccc2c(c1)nc(C(=O)c1ccco1)c(C(F)(F)F)[n+]2[O-]`, the GI50 is greater than 100 µM in experiment [1]; 29.2 µM in [2]; greater than 100 µM in experiment [3]; greater than 100 µM in [4]; greater than 100 µM in [5]; greater than 100 µM in experiment [6]. Besides, the GI50 in experiment [7], in [8], in experiment [9] and in experiment [10] was greater than 100 µM throughout. Besides, the total growth inhibition concentration (TGI) in [1], in experiment [2], in experiment [3], in [4], in [5] and in experiment [6] was greater than 100 µM throughout. Besides, the concentration for total growth inhibition (TGI) in [7], in experiment [8], in experiment [9] and in experiment [10] was greater than 100 µM in each case.

Turning to `COc1ccc2c(c1)c(-c1nc(-c3c[nH]c4ccncc34)cs1)cn2C`, the GI50 in [1] is 1.59 µM; in experiment [2], 1.7 µM; in experiment [3], 1.65 µM; in [4] it was 1.83 µM; in experiment [5] it was 1.87 µM; in [6] it was 1.73 µM. Further, the GI50 in experiment [7] was 1.91 µM; in [8], 1.89 µM; in [9] it was 1.88 µM; in experiment [10], 1.85 µM. For the same compound, the total growth inhibition concentration (TGI) came out at 2.96 µM in experiment [1]; 3.24 µM in experiment [2]; 3.09 µM in [3]; 3.83 µM in [4]; 3.46 µM in experiment [5]; 3.31 µM in [6]. Besides, the concentration for total growth inhibition (TGI) in experiment [7] came out at 3.54 µM; in [8] it was 3.71 µM; in experiment [9], 3.34 µM; in [10], 3.36 µM.

One may read the GI50 as the concentration that inhibits growth by half. By TGI is commonly meant the concentration at which net growth stops.
